Laboratory results: patent publication EP0981526B1, “NOVEL ANTIDIABETIC COMPOUNDS HAVING HYPOLIPIDAEMIC, ANTIHYPERTENSIVE PROPERTIES, PROCESS FOR THEIR PREPARATION AND PHARMACEUTICAL COMPOSITIONS CONTAINING THEM” (Dr. Reddy's Laboratories Ltd., priority 1997, dated 1997)

System: C57BL/KsJ-db/db mice
Test: Blood sugar and triglycerides lowering activity in db/db mice (in vivo)
Settings: for Reduction in Blood Glucose Level (%) / Triglyceride Lowering (%): oral gavage daily, male db/db mice; for Reduction in Blood Glucose Level (%): plasma glucose; for Triglyceride Lowering (%): plasma triglyceride
Text: Mutation in colonies of laboratory animals and different sensitivities to dietary regimens have made the development of animal models with non-insulin dependent diabetes associated with obesity and insulin resistance possible. Genetic models such as db/db and ob/ob (See Diabetes. (1982) 31(1): 1-6) in mice and fa/fa and zucker rats have been developed by the various laboratories for understanding the pathophysiology of disease and testing the efficacy of new antidiabetic compounds (Diabetes, (1983)32: 830-838; Annu. Rep. Sankyo Res. Lab. (1994). 46: 1-57). The homozygous animals, C57 BL/KsJ-db/db mice developed by Jackson Laboratory, US, are obese, hyperglycemic, hyperinsulinemic and insulin resistant (J. Clin. Invest., (1990) 85: 962-967), whereas heterozygous are lean and normoglycemic. In db/db model mouse progressively develops insulinopenia with age, a feature commonly observed in late stages of human type II diabetes when blood sugar levels are insufficiently controlled. The state of pancreas and its course vary according to the models. Since this model resembles that of type II diabetes mellitus, the compounds of the present invention were tested for blood sugar and triglycerides lowering activities.
Male C57BL/KsJ-db/db mice of 8 to 14 weeks age, having body weight range of 35 to 60 grams, procured from the Jackson Laboratory, USA, were used in the experiment. The mice were provided with standard feed (National Institute of Nutrition, Hyderabad, India) and acidified water, ad libitum. The animals having more than 300 mg/dl blood sugar were used for testing. The number of animals in each group was 4.
The random blood sugar ad triglyceride levels were measured by collecting blood (100 µl) through orbital sinus, using heparinized capillary in tubes containing EDTA which was centrifuged to obtain plasma. The plasma glucose and triglyceride levels were measured through spectrometrically, by glucose oxidase and glycerol-3-PO4 oxidase/peroxidase enzyme (Dr. Reddy's Lab. Diagnostic Division Kits, Hyderabad, India) methods respectively. On 6th day the blood samples were collected one hour after administration of test compounds/vehicle for assessing the biological activity.
Test compounds were suspended on 0.25 % carboxymethyl cellulose and administered to test group at a dose of 30 mg to 200 mg/kg through oral gavage daily for 6 to 9 days. The control group received vehicle (dose 10 ml/kg).
The blood sugar and triglycerides lowering activities of the test compound was calculated according to the formula: Blood sugar / triglycerides lowering activity (%) = 1 -(DT/DC)/(TC/ZC)X 100 [formula] • ZC = Zero day control group value • DC = Zero day treated group value • TC = Control group value on test day • DT = Treated group value on the test day

[1] = dose 200 mg/kg, treated for nine days

Structure (SMILES) | Reduction in Blood Glucose Level (%) (dose 30 mg/kg) | Reduction in Blood Glucose Level (%) (dose 100 mg/kg) | Triglyceride Lowering (%) (dose 100 mg/kg) | Triglyceride Lowering (%) (dose 30 mg/kg) | other results
O=C1NC(=O)C(=Cc2ccc(OC3CCN(C(=O)OCc4ccccc4)CC3)cc2)S1 [Example 1, 5-[4-[1(Benzyloxycarbonyl)piperidin-4-yloxy]phenylmethylene]thiazolidine-2,4-dione] | 47 | 59 | 29 |  | Reduction in Blood Glucose Level (%) [1]: 62%; Triglyceride Lowering (%) [1]: 70%
O=C1NC(=O)C(=Cc2ccc(OCC3CCN(C(=O)OCc4ccccc4)CC3)cc2)S1 [Example 3, 5-[4-[1-(Benzyloxycarbonyl)piperidin-4-ylmethoxy]phenylmethylene] thiazolidine-2,4-dione] |  | 35 | 56 |  | 
O=C1NC(=O)C(=Cc2ccc(OC[C@@H]3CCCN3C(=O)OCc3ccccc3)cc2)S1 [Example 5, 5-[4-[1-(Benzyloxycarbonyl)-(2S)-pyrrolidin-2-ylmethoxy]phenylmethylene]thiazolidine-2,4-dione] | 30 |  |  | 5 | 
O=C1NC(=O)C(=Cc2ccc(OC3CCN(C(=O)NCc4ccccc4)CC3)cc2)S1 [Example 10, 5-[4-[1-(Benzylaminocarbonyl)piperidin-4-yloxy]phenylmethylene]thiazolidine-2,4-dione] | 37 |  |  | 6 | 
Cc1c(C)c2c(c(C)c1O)CCC(C)(COc1ccc(CC3SC(=O)NC3=O)cc1)O2 (stereo not drawn) [Troglitazone, reference compound] |  |  |  |  | reduction in random blood sugar level (100 mg/kg, daily dose, on 6th day, standard drug, db/db mice): 28%
